Key:
[1] = compound: CCN1CCN(Cc2ccc(Nc3ncc(F)c(-c4cc(F)c5nc(C)n(C(C)C)c5c4)n3)nc2)CC1
Taselisib/GDC0032 = compound: Cc1nc(-c2cn3c(n2)-c2ccc(-c4cnn(C(C)(C)C(N)=O)c4)cc2OCC3)n(C(C)C)n1 [Taselisib/GDC0032]
Pictilisib/GDC0941 = compound: CS(=O)(=O)N1CCN(Cc2cc3nc(-c4cccc5[nH]ncc45)nc(N4CCOCC4)c3s2)CC1 [Pictilisib/GDC0941]
Tivantinib/ARQ197 = compound: O=C1NC(=O)[C@@H](c2cn3c4c(cccc24)CCC3)[C@@H]1c1c[nH]c2ccccc12 [Tivantinib/ARQ197]
[2] = compound: COc1ccc2c(c1)[C@]1(C[C@H]1c1ccc3c(/C=C/c4ccc(CN5C[C@@H](C)O[C@@H](C)C5)cc4)n[nH]c3c1)C(=O)N2
Volasertib/BI6727 = compound: CC[C@@H]1C(=O)N(C)c2cnc(Nc3ccc(C(=O)N[C@H]4CC[C@H](N5CCN(CC6CC6)CC5)CC4)cc3OC)nc2N1C(C)C [Volasertib/BI6727]
Neratinib/HKI272 [3] = compound: T1, CCOc1cc2ncc(C#N)c(Nc3ccc(OCc4ccccn4)c(Cl)c3)c2cc1NC(=O)/C=C/CN(C)C [Neratinib/HKI272]
Ceritinib/LDK378 = compound: Cc1cc(Nc2ncc(Cl)c(Nc3ccccc3S(=O)(=O)C(C)C)n2)c(OC(C)C)cc1C1CCNCC1 [Ceritinib/LDK378]
BSJ-03-123 [4] = compound: T2, CC(=O)c1c(C)c2cnc(Nc3ccc(N4CCN(CCOCCOCCOCCNC(=O)COc5cccc6c5C(=O)N(C5CCC(=O)NC5=O)C6=O)CC4)cn3)nc2n(C2CCCC2)c1=O [BSJ-03-123]
LEE011/Ribociclib [5] = compound: T3, CN(C)C(=O)c1cc2cnc(Nc3ccc(N4CCNCC4)cn3)nc2n1C1CCCC1 [LEE011/Ribociclib]
INK128/MLN0128 = compound: CC(C)n1nc(-c2ccc3oc(N)nc3c2)c2c(N)ncnc21 [INK128/MLN0128]
Paclitaxel = compound: CC(=O)O[C@H]1C(=O)[C@@]2(C)[C@H]([C@H](OC(=O)c3ccccc3)[C@]3(O)C[C@H](OC(=O)[C@H](O)[C@@H](NC(=O)c4ccccc4)c4ccccc4)C(C)=C1C3(C)C)[C@]1(OC(C)=O)CO[C@@H]1C[C@@H]2O [Paclitaxel]
ABT-737 = compound: CN(C)CC[C@H](CSc1ccccc1)Nc1ccc(S(=O)(=O)NC(=O)c2ccc(N3CCN(Cc4ccccc4-c4ccc(Cl)cc4)CC3)cc2)cc1[N+](=O)[O-] [ABT-737]
THZ531 = compound: CN(C)C/C=C/C(=O)Nc1ccc(C(=O)N2CCC[C@@H](Nc3ncc(Cl)c(-c4c[nH]c5ccccc45)n3)C2)cc1 [THZ531]
[6] = compound: CCN1CCN(Cc2ccc(Nc3ncc(F)c(-c4cc(F)c5nc(C)n(C(C)C)c5c4)n3)nc2)CC1; test: GR value, 72 h; higher = faster growth (1 = untreated, <0 = killing);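 note: breast cancer and non-malignant breast epithelial lines, nine half-log doses, viable cells counted by Hoechst and LIVE/DEAD dye imaging versus time-zero plates and DMSO controls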
[7] = compound: CCc1cnn2c(NCc3ccc[n+]([O-])c3)cc(N3CCCC[C@H]3CCO)nc12; test: as above
Neratinib/HKI272 [8] = compound: T1, Neratinib/HKI272; test: as above
BSJ-03-123 [9] = compound: T2, BSJ-03-123; test: as above
LEE011/Ribociclib [10] = compound: T3, LEE011/Ribociclib; test: as above
YKL-5-124 = compound: C=CC(=O)Nc1ccc(C(=O)Nc2[nH]nc3c2CN(C(=O)N[C@H](CN(C)C)c2ccccc2)C3(C)C)cc1 [YKL-5-124]; test: as above
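Throughout, for GR50, 72 h: breast cancer and non-malignant breast epithelial cell lines, Deep Dye Drop or Dye Drop imaging, nine half-log doses, GR normalized to time-zero plates and DMSO-only controls.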

HCC1806
GR50, 72 h [1]: 0.554 µM | GR50, 72 h (Taselisib/GDC0032): 1.55 µM | GR50, 72 h (Pictilisib/GDC0941): 5.87 µM | GR50, 72 h (Tivantinib/ARQ197): 0.272 µM | GR50, 72 h [2]: 0.00322 µM | GR50, 72 h (Volasertib/BI6727): 0.0028 µM | GR50, 72 h (Neratinib/HKI272 [3]): 0.78 µM | GR50, 72 h (Ceritinib/LDK378): 2.14 µM | GR50, 72 h (BSJ-03-123 [4]): 2.56 µM | GR50, 72 h (LEE011/Ribociclib [5]): > 10 µM | GR50, 72 h (INK128/MLN0128): 0.0524 µM | GR50, 72 h (Paclitaxel): 0.00143 µM | GR50, 72 h (ABT-737): > 10 µM | GR50, 72 h (THZ531): 0.407 µM | GR value ([6]; 0.001 µM): 0.986 GR | GR value ([6]; 0.003162 µM): 0.943 GR | GR value ([6]; 0.01 µM): 0.894 GR | GR value ([6]; 0.03162 µM): 0.779 GR | GR value ([6]; 0.1 µM): 0.75 GR | GR value ([6]; 0.3162 µM): 0.667 GR | GR value ([6]; 1 µM): 0.447 GR | GR value ([6]; 3.162 µM): 0.129 GR | GR value ([6]; 10 µM): -0.456 GR | GR value ([7]; 0.0001 µM): 1.04 GR | GR value ([7]; 0.0003162 µM): 1.05 GR | GR value ([7]; 0.001 µM): 1 GR | GR value ([7]; 0.003162 µM): 1.01 GR | GR value ([7]; 0.01 µM): 0.798 GR | GR value ([7]; 0.03162 µM): -0.315 GR | GR value ([7]; 0.1 µM): -0.472 GR | GR value ([7]; 0.3162 µM): -0.465 GR | GR value ([7]; 1 µM): -0.45 GR | GR value (Neratinib/HKI272 [8]; 0.0003162 µM): 1.08 GR | GR value (Neratinib/HKI272 [8]; 0.001 µM): 1.06 GR | GR value (Neratinib/HKI272 [8]; 0.003162 µM): 1.04 GR | GR value (Neratinib/HKI272 [8]; 0.01 µM): 0.99 GR | GR value (Neratinib/HKI272 [8]; 0.03162 µM): 0.881 GR | GR value (Neratinib/HKI272 [8]; 0.1 µM): 0.811 GR | GR value (Neratinib/HKI272 [8]; 0.3162 µM): 0.675 GR | GR value (Neratinib/HKI272 [8]; 1 µM): 0.546 GR | GR value (Neratinib/HKI272 [8]; 3.162 µM): -0.0945 GR | GR value (BSJ-03-123 [9]; 0.001 µM): 1 GR | GR value (BSJ-03-123 [9]; 0.003162 µM): 0.98 GR | GR value (BSJ-03-123 [9]; 0.01 µM): 0.958 GR | GR value (BSJ-03-123 [9]; 0.03162 µM): 0.963 GR | GR value (BSJ-03-123 [9]; 0.1 µM): 0.902 GR | GR value (BSJ-03-123 [9]; 0.3162 µM): 0.831 GR | GR value (BSJ-03-123 [9]; 1 µM): 0.648 GR | GR value (BSJ-03-123 [9]; 3.162 µM): 0.566 GR | GR value (BSJ-03-123 [9]; 10 µM): -0.0555 GR | GR value (LEE011/Ribociclib [10]; 0.001 µM): 0.919 GR | GR value (LEE011/Ribociclib [10]; 0.003162 µM): 0.948 GR | GR value (LEE011/Ribociclib [10]; 0.01 µM): 0.884 GR | GR value (LEE011/Ribociclib [10]; 0.03162 µM): 0.886 GR | GR value (LEE011/Ribociclib [10]; 0.1 µM): 0.876 GR | GR value (LEE011/Ribociclib [10]; 0.3162 µM): 0.824 GR | GR value (LEE011/Ribociclib [10]; 1 µM): 0.796 GR | GR value (LEE011/Ribociclib [10]; 3.162 µM): 0.801 GR | GR value (LEE011/Ribociclib [10]; 10 µM): 0.699 GR | GR value (YKL-5-124; 0.001 µM): 0.386 GR | GR value (YKL-5-124; 0.003162 µM): 0.232 GR | GR value (YKL-5-124; 0.01 µM): 0.105 GR | GR value (YKL-5-124; 0.03162 µM): 0.0295 GR | GR value (YKL-5-124; 0.1 µM): -0.0411 GR | GR value (YKL-5-124; 0.3162 µM): -0.075 GR | GR value (YKL-5-124; 1 µM): -0.155 GR | GR value (YKL-5-124; 3.162 µM): -0.19 GR | GR value (YKL-5-124; 10 µM): -0.466 GR

— the supplement of paper PMC9663587
